Results reported in patent US20230233577A1, “17Beta-ESTRADIOL/VITAMIN C MOLECULAR COMPLEX, PREPARATION METHOD, AND USE THEREOF” (ZHEJIANG MEDICINE CO., LTD.XINCHANG PHARMACEUTICAL FACTORY, priority 2020, published 2023).
Marks after values point to notes of the source that are not given here.

Columns and labels:
Assay type in all cases: in vivo, ICR mice
[1] = test system: ovariectomized female mice; assay: Femoral dry weight in ovariectomized female mice; details: oral, 4 weeks, n = 11
[2] = test system: ovariectomized female mice; assay: Femoral calcium content in ovariectomized female mice (OCPC method); details: oral, 4 weeks, n = 11
[3] = test system: ovariectomized female mice; assay: Femoral ash weight in ovariectomized female mice; details: oral, 4 weeks, n = 11
[4] = test system: ovariectomized female mice; assay: Pathological sections of oviduct walls, endometria and uterine glands of ovariectomized female mice
Experimental: Pathological sections of oviduct walls, endometria, and uterine glands of ovariectomized female mice were prepared to evaluate the influence of the complex on the oviduct walls, endometria, and uterine glands of the ovariectomized mice.

[5] = test system: ovariectomized female mice; assay: Femoral mineral content (BMC, ash weight/dry weight) in ovariectomized female mice; details: ratio femoral ash weight/dry weight, oral, 4 weeks, n = 11
[6] = test system: ovariectomized female mice; assay: Tail bleeding time (thrombosis side effect) in ovariectomized female mice; details: for Bleeding time (tail, mean ± SD): ovariectomized mice, oral, 30 min after last administration, n = 11
[7] = test system: ovariectomized female mice; assay: Trabecular bone density in ovariectomized female mice (CT of left femur); details: oral, 4 weeks, n = 11
[8] = test system: ovariectomized female mice; assay: Femoral length and ratio of femoral ash weight to femoral length in ovariectomized female mice; details: oral, 4 weeks, n = 11
[9] = test system: ovariectomized female mice; assay: Uterine weight (endometrial hyperplasia side effect) in ovariectomized female mice; details: for Uterine weight (mean ± SD): ovariectomized mice, oral, n = 11
[10] = ovariectomized mouse treated at 2.3 μmol/kg/day
[11] = summary of pathological sections FIG. 3A to FIG. 8E
[12] = at both doses of 2.3 μmol/kg/day and 0.23 μmol/kg/day

SMILES: C[C@]12CC[C@@H]3c4ccc(O)cc4CC[C@H]3[C@@H]1CC[C@@H]2O [17β-estradiol]
- Femoral dry weight (mean ± SD) ([1]; dose 0.23 μmol/kg/day): 49.08 ± 6.02^b mg
- Femoral dry weight (mean ± SD) ([1]; dose 2.3 μmol/kg/day): 54.42 ± 2.96^a mg
- Femoral calcium content (mean ± SD) ([2]; dose 0.23 μmol/kg/day): 23.34 ± 0.70%
- Femoral calcium content (mean ± SD) ([2]; dose 2.3 μmol/kg/day): 24.57 ± 1.85^a %
- Femoral ash weight (mean ± SD) ([3]; dose 0.23 μmol/kg/day): 29.08 ± 5.42^b mg
- Femoral ash weight (mean ± SD) ([3]; dose 2.3 μmol/kg/day): 33.37 ± 3.21^a mg
- Thickness of endometrium (pathological section) [4, 10]: 23.08 μm
- Thickness of oviduct wall (pathological section) [4, 10]: 152.11 μm
- Uterine gland pathology (in words) [4, 10]: the density of the tissue around the uterine gland is significantly reduced
- Lesions of uterine glands (in words) [4, 11]: could cause lesions of uterine glands
- Thickening of endometria and oviduct walls (in words) [4, 11]: could induce the thickening of endometria and oviduct walls
- BMC (femoral mineral content, mean ± SD) ([5]; dose 0.23 μmol/kg/day): 0.560 ± 0.041 mg/mg
- BMC (femoral mineral content, mean ± SD) ([5]; dose 2.3 μmol/kg/day): 0.620 ± 0.020^a mg/mg
- Effect on tail bleeding time (in words) [6, 12]: significantly shortened the tail bleeding time
- Bleeding time (tail, mean ± SD) ([6]; dose 0.23 μmol/kg/day): 640.6 ± 189.6^a s
- Bleeding time (tail, mean ± SD) ([6]; dose 2.3 μmol/kg/day): 659.1 ± 203.8^a s
- Trabecular bone density (mean ± SD) ([7]; dose 0.23 μmol/kg/day): 595.35 ± 30.47^d mg/cm^3
- Trabecular bone density (mean ± SD) ([7]; dose 2.3 μmol/kg/day): 748.57 ± 33.37^a mg/cm^3
- Ash weight/length (mean ± SD) ([8]; dose 0.23 μmol/kg/day): 1.72 ± 0.22 mg/mm
- Ash weight/length (mean ± SD) ([8]; dose 2.3 μmol/kg/day): 2.02 ± 0.20^a mg/mm
- Effect on uterine weight (in words) [9, 12]: significantly increased the uterine weight
- Uterine weight (mean ± SD) ([9]; dose 0.23 μmol/kg): 0.200 ± 0.041^a g
- Uterine weight (mean ± SD) ([9]; dose 2.3 μmol/kg): 0.207 ± 0.045^a g
